In patent US9475789B2, “Use of polyenylpyrrole derivatives for treating inflammation” (WELLHEAD BIOLOGICAL TECHNOLOGY CORP., priority 2014, dated 2016):
Entries after “also recorded” stand apart in the source; their conditions may differ.

Legend:
NF-κB = NF-κB reporter assay (SEAP), RAW-Blue cells; assay type: cell-based, murine; settings: compound 1h 2.5-40 μM, LPS 24 h
Description: (§1) (A) RAW 264.7 macrophages (5×10^5/ml) or (B) J774A.1 macrophages (5×10^5/ml) were incubated with compound 1h or DMSO for 30 min followed by LPS (1 μg/ml) stimulating for 20 min, then the phosphorylation levels of IKK-α and IκB-α and total IκB-α protein level were analyzed by Western blot. (C) RAW 264.7 macrophages (5×10^5/ml) or (D) J774A.1 macrophages (5×10^5/ml) were incubated with compound 1h (10-40 μM) or DMSO for 30 min followed by LPS (1 μg/ml) stimulating for 20 min, then the nuclear translocation of NF-κB were analyzed by ELISA. (E) RAW-Blue™ cells (5×10^5/ml) were incubated with compound 1h (2.5-40 μM) or DMSO for 30 min followed by LPS (1 μg/ml) stimulating for 24 h, then the SEAP activity was measured by QUANTI-Blue™. […] In (C), (D), and (E), the data are expressed as the mean±SD for three separate experiments. *, **, and *** indicate a significant difference at the level of p<0.05, p<0.01, and p<0.001 respectively compared to LPS group.
RAW-Blue™ cells, RAW 264.7 macrophages which stably express a secreted embryonic alkaline phosphatase (SEAP) gene inducible by NF-κB, were seeded in 60 mm dishes at a density of 5×10^5 cells/ml, and grown overnight in a 5% CO2 incubator at 37° C. […] Results of the SEAP activity were assessed by measuring the optical density at 655 nm using an ELISA reader.

IL-6 [1] = assay: IL-6 ELISA, RAW 264.7 macrophages; assay type: cell-based, murine
Description: (§2) The effects of tested samples on IL-1β, TNF-α and IL-6 production were measured by ELISA according to the manufacturer's instruction. In brief, 50 μl of biotinylated antibody reagent and 50 μl of supernatant were added to an anti-mouse IL-1β, TNF-α and IL-6 precoated stripwell plate, and incubated at room temperature for 2 h. After washing the plate three times with washing buffer, 100 μl of diluted streptavidin-HRP concentrate was added to each well and incubated at room temperature for 30 min. The washing process was repeated; then 100 μl of a premixed tetramethylbenzidine substrate solution was added to each well and developed at room temperature in the dark for 30 min. Following the addition of 100 μl of stop solution to each well to stop the reaction, the absorbance of the plate was measured by a microplate reader at 450 nm wavelength.

IL-1β = IL-1β ELISA, LPS+ATP-activated peritoneal macrophages; assay type: cell-based, C57BL/6 mice; settings: primary peritoneal macrophages; compound before LPS and ATP
Description: (A) J774A.1 macrophages (1×10^6/ml) and (B) peritoneal macrophages (1×10^5/ml) were incubated with compound 1h for 30 min followed by LPS (1 μg/ml) stimulating for 5.5 h, then the cells were stimulated with ATP (5 mM) for an additional 30 min. The IL-1β in the culture medium was measured by ELISA and the expression of active caspase-1 (p10) was measured by Western blot. In (C) and (D), J774A.1 macrophages (1×10^6/ml) were incubated with LPS (1 μg/ml) for 5.5 h, then cells were incubated with compound 1h for 30 min followed by stimulating with ATP (5 mM) for an additional 30 min. The IL-1β and IL-6 in the culture medium were measured by ELISA and the expression of active caspase-1 (p10) was measured by Western blot. In (E), J774A.1 macrophages (1×10^6/ml) were incubated with compound 1h for 30 min followed by LPS (1 μg/ml) stimulating for 6 h. The expression of NLRP3 and proIL-1β were measured by Western blot.
The effects of tested samples on IL-1β, TNF-α and IL-6 production were measured by ELISA according to the manufacturer's instruction. […] Following the addition of 100 μl of stop solution to each well to stop the reaction, the absorbance of the plate was measured by a microplate reader at 450 nm wavelength.

IL-6 [2] = assay: IL-6 ELISA, LPS-activated peritoneal macrophages; assay type: cell-based, C57BL/6 mice; settings: LPS 1 μg/ml 24 h
Description: (A) J774A.1 macrophages (4×10^5/ml), (B) peritoneal macrophages (4×10^5/ml), and (C) JAWSII dendritic cells (4×10^5/ml) were incubated with compound 1h or DMSO for 30 min followed by stimulating with LPS (1 μg/ml) for 24 h, then IL-6 and TNF-α concentration in culture medium were assayed by ELISA. The data are expressed as the mean±SD for three separate experiments. *, **, and *** indicate a significant difference at the level of p<0.05, p<0.01, p<0.001 respectively compared to LPS group.
as §2

[3] = test system: LPS-induced NO generation in RAW 264.7 macrophages; assay: NO inhibitory assay (Griess reaction) in LPS-activated macrophages; assay type: cell-based, murine
Description: In (A) and (C), cells (5×10^5/ml) were incubated with polyenylpyrrole derivatives or DMSO (vehicle) for 30 min followed by stimulating with LPS (1 μg/ml) for 24 h, then NO (A), IL-6 and TNF-α (C) concentration in culture medium were assayed by Griess reaction and ELISA, respectively. In (B), cells (5×10^5/ml) were pretreated with polyenylpyrrole derivatives or DMSO for 30 min followed by stimulating with LPS (1 μg/ml) for 24 h, then the protein expression of iNOS and COX-2 were assayed by Western blot. […] RAW 264.7 cells were seeded in 24-well plates at a density of 5×10^5 cells/ml, and then incubated with or without LPS (1 μg/ml) in the absence or presence of tested samples for 24 h. The effects of the tested samples on NO production were measured indirectly by analysis of nitrite levels using the Griess reaction.

NF-κB p65 = NF-κB p65 nuclear translocation ELISA, RAW 264.7 macrophages; assay type: cell-based, murine; settings: compound 1h 10-40 μM, LPS 20 min
Description: as §1
Nuclear protein from RAW 264.7 and J774A.1 cells were extracted using a Nuclear Extract Kit (Active Motif) according to the manufacturer's instructions and nuclear NF-κB p65 activation quantified using an ELISA-based TransAM NF-κB kit (Active Motif, Tokyo, Japan) according to the manufacturer's protocol by reading the absorbance with a microplate absorbance reader (Bio-Rad Laboratories, Inc) at 450 nm with a reference wavelength of 655 nm.

## O=c1cc(O)cc(/C=C/C=C/C=C/C=C/c2[nH]ccc2Cl)o1 [Compound 1h]
NF-κB
  NF-κB transcriptional activity: reduced
IL-6 [1]; LPS-activated RAW 264.7
  relative potency in decreasing IL-6 secretion: more potent than 1i and 1n
IL-6 [1]; LPS-activated RAW 264.7, LPS 1 μg/ml 24 h
  secretion of IL-6: decreased production; also recorded: decreased the secretion of IL-6 by LPS-activated RAW 264.7 macrophages in a dose-dependent manner
IL-6 [1]; compound alone, no LPS, data not shown
  background level of IL-6: did not alter
IL-1β
  IL-1β inhibition activity: confirmed
IL-6 [2]
  secretion of IL-6: reduced
[3]; Mus musculus, RAW264.7, 50% inhibition of the LPS-induced NO generation, RAW 264.7, LPS 1 μg/ml, 24 h, read-out: ED50 (the source's name)
  EC50: 15 ± 2 µM
[3]; RAW 264.7, LPS 1 μg/ml 24 h, Griess reaction
  production of NO by LPS-activated cells: decreased production; also recorded: decreased the production of NO by LPS-activated cells in a dose-dependent manner
[3]; compound alone, no LPS, RAW 264.7, data not shown
  background level of NO: did not alter
NF-κB p65
  NF-κB nuclear translocation: inhibited NF-κB nuclear translocation
